Key:
Assay in all cases: Bliss excess, mean over the matrix (fraction); higher = more synergy
[1] = system: NCI-H716 (Colorectal Carcinoma)
Procedure, shortened: (§1)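 Cell lines in DMEM/F12 or RPMI with 10% FBS were plated in 1536-well plates, held 24 hours at 37°C, 5% CO2, then given two-drug dose matrices for 72 hours (DMSO typically 0.2%). Viability was read by CellTiter-Glo 2.0 luminescence and scaled as inhibition from 0 (vehicle wells) to 1 (blank wells). Combination Emax is the second-highest inhibition in the matrix; Bliss excess is observed combination effect minus expected EA + EB − EA·EB, EA and EB being single-agent effects.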

PEO1 (Ovarian Carcinoma) = system: PEO1 (Ovarian Carcinoma)
Procedure, shortened: as §1

EB2 (Burkitt's Lymphoma) = system: EB2 (Burkitt's Lymphoma)
Procedure, shortened: as §1

[2] = system: CESS (Acute Myeloid Leukemia)
Procedure, shortened: as §1

[3] = system: EPLC-272H (Other Solid Carcinomas)
Procedure, shortened: as §1

NB13 (Neuroblastoma) = system: NB13 (Neuroblastoma)
Procedure, shortened: as §1

[4] = system: HT55 (Colorectal Carcinoma)
Procedure, shortened: as §1

[5] = system: DMS-53 (Small Cell Lung Carcinoma)
Procedure, shortened: as §1

769-P (Kidney Carcinoma) = system: 769-P (Kidney Carcinoma)
Procedure, shortened: as §1

[6] = system: NCI-H1703 (Squamous Cell Lung Carcinoma)
Procedure, shortened: as §1

EW-16 (Ewing's Sarcoma) = system: EW-16 (Ewing's Sarcoma)
Procedure, shortened: as §1

[7] = system: GCT (Other Solid Carcinomas)
Procedure, shortened: as §1

[8] = system: JIMT-1 (Breast Carcinoma)
Procedure, shortened: as §1

[9] = system: huH-1 (Hepatocellular Carcinoma)
Procedure, shortened: as §1

[10] = system: MDA-MB-436 (Breast Carcinoma)
Procedure, shortened: as §1

[11] = system: 22RV1 (Prostate Carcinoma)
Procedure, shortened: as §1

[12] = system: SW620 (Colorectal Carcinoma)
Procedure, shortened: as §1

[13] = system: NCI-H2228 (Lung Adenocarcinoma)
Procedure, shortened: as §1

[14] = system: NCI-H441 (Lung Adenocarcinoma)
Procedure, shortened: as §1

[15] = system: OACp4C (Esophageal Adenocarcinoma)
Procedure, shortened: as §1

| Compound | Bliss excess [1] | Bliss excess (PEO1 (Ovarian Carcinoma)) | Bliss excess (EB2 (Burkitt's Lymphoma)) | Bliss excess [2] | Bliss excess [3] | Bliss excess (NB13 (Neuroblastoma)) | Bliss excess [4] | Bliss excess [5] | Bliss excess (769-P (Kidney Carcinoma)) | Bliss excess [6] | Bliss excess (EW-16 (Ewing's Sarcoma)) | Bliss excess [7] | Bliss excess [8] | Bliss excess [9] | Bliss excess [10] | Bliss excess [11] | Bliss excess [12] | Bliss excess [13] | Bliss excess [14] | Bliss excess [15] |
| --- | --- | --- | --- | --- | --- | --- | --- | --- | --- | --- | --- | --- | --- | --- | --- | --- | --- | --- | --- | --- |
| NC1(C(=O)N[C@@H](CCO)c2ccc(Cl)cc2)CCN(c2ncnc3[nH]ccc23)CC1 [Capivasertib] + CCN(CCO)CCCOc1ccc2c(Nc3cc(CC(=O)Nc4cccc(F)c4)[nH]n3)ncnc2c1 [AZD2811] (first compound max 10 µM, 7x7, partner max 1 µM) | -0.0402 | -0.0134 | -0.0299 | 0.0217 | 0.0027 | -0.007 | -0.0412 | 0.0225 | -0.0139 | -0.0237 | -0.014 | -0.0017 | 0.0154 | -0.0695 | -0.0424 | -0.0373 | -0.029 | -0.041 | -0.0425 | -0.0332 |
| C=CCn1c(=O)c2cnc(Nc3ccc(N4CCN(C)CC4)cc3)nc2n1-c1cccc(C(C)(C)O)n1 [AZD1775] + O=C(c1cc(Cc2n[nH]c(=O)c3ccccc23)ccc1F)N1CCN(C(=O)C2CC2)CC1 [Olaparib] (first compound max 1 µM, partner max 10 µM) | -0.0695 | -0.013 | -0.019 | -0.0054 | 0.0169 | 0.0008 | 0.0391 | -0.0715 | -0.0578 | -0.0267 | -0.0129 | -0.0327 | -0.0795 | -0.0118 | -0.0077 | -0.0296 | -0.0395 | 0.0107 | -0.0662 | -0.055 |
| COc1cccc(OCCCN)c1-c1cc(Nc2cnc(C#N)cn2)n[nH]1 [Prexasertib] + CCc1c2c(nc3ccc(O)cc13)-c1cc3c(c(=O)n1C2)COC(=O)[C@]3(O)CC [SN-38] (first compound max 1 µM, 7x7, partner max 0.3 µM) | 0.0825 | -0.0015 | -0.0439 | -0.0364 | -0.0229 | 0.0263 | 0.0552 | -0.0377 | -0.0688 | -0.0374 | -0.0002 | -0.0185 | 0.0096 | 0.022 | -0.003 | -0.0649 | 0.0603 | -0.0569 | -0.0772 | 0.0186 |
| CN(C)CCCOc1ccc(-c2ccc3ncc4c(c3c2)n(C2CCOCC2)c(=O)n4C)cn1 [AZD0156] + C[C@@H]1COCCN1C2=NC(=NC(=C2)C3(CC3)[S@](=N)(=O)C)C4=C5C=CNC5=NC=C4 [AZD6738] (first compound max 1 µM, 7x7, partner max 10 µM) | 0.0459 | -0.0327 | -0.0562 | 0.0386 | 0.0156 | 0.058 | -0.0042 | -0.0249 | 0.0253 | -0.0341 | -0.0074 | 0.0062 | 0.0042 | 0.0019 | -0.0396 | -0.0678 | 0.0308 | -0.024 | -0.0718 | 0.0169 |
| Cn1cnc2c(F)c(Nc3ccc(Br)cc3Cl)c(C(=O)NOCCO)cc21 [Selumetinib] + CCN(CCO)CCCOc1ccc2c(Nc3cc(CC(=O)Nc4cccc(F)c4)[nH]n3)ncnc2c1 [AZD2811] (first compound max 10 µM, 7x7, partner max 1 µM) | 0.044 | -0.0252 | -0.0564 | 0.0943 | 0.0426 | -0.0829 | 0.0032 | -0.0629 | -0.0062 | -0.0167 | -0.0221 | -0.0185 | -0.0403 | -0.0492 | -0.006 | -0.0797 | 0.0738 | -0.0357 | -0.0565 | 0.0193 |
| CC(=O)c1c(C)c2cnc(Nc3ccc(N4CCNCC4)cn3)nc2n(C2CCCC2)c1=O [Palbociclib] + Cc1c2c(nn1C)CSCc1cc(n(C)n1)CSc1cc(c3ccccc3c1)OCCCc1c(C(=O)O)n(C)c3c-2c(Cl)ccc13 [AZD5991] (first compound max 10 µM, 7x7, partner max 1 µM) | -0.0343 | -0.0483 | -0.0352 | -0.0341 | -0.0979 | 0.0041 | 0.0046 | 0.044 | -0.004 | -0.0636 | -0.0356 | -0.049 | -0.0348 | -0.0422 | -0.0243 | -0.0781 | -0.0292 | -0.0537 | -0.0362 | -0.064 |
| CCc1c2c(nc3ccc(O)cc13)-c1cc3c(c(=O)n1C2)COC(=O)[C@]3(O)CC [SN-38] + CN(C)CCCOc1ccc(-c2ccc3ncc4c(c3c2)n(C2CCOCC2)c(=O)n4C)cn1 [AZD0156] (first compound max 0.3 µM, 7x7, partner max 1 µM) | 0.0129 | -0.0037 | 0.0238 | 0.0031 | 0.0536 | 0.0313 | 0.0776 | -0.0288 | 0.018 | 0.0117 | 0.0385 | 0.0183 | 0.0056 | 0.0502 | 0.0033 | 0.0403 | 0.11 | 0.0587 | -0.0052 | 0.0666 |
| C[C@@H]1COCCN1c1cc(C2([S@](C)(=N)=O)CC2)nc(-c2ccnc3[nH]ccc23)n1 [AZD6738] + O=C(c1cc(Cc2n[nH]c(=O)c3ccccc23)ccc1F)N1CCN(C(=O)C2CC2)CC1 [Olaparib] (first compound max 10 µM, 7x7, partner max 10 µM) | -0.0229 | 0.0069 | -0.0553 | 0.0222 | -0.0682 | 0.0511 | 0.0204 | -0.002 | -0.0656 | -0.041 | 0.0402 | -0.0027 | -0.0247 | -0.0162 | -0.0176 | 0.0117 | 0.0218 | -0.0305 | 0.0124 | -0.0281 |
| CC1(C)CCC(CN2CCN(c3ccc(C(=O)NS(=O)(=O)c4ccc(NCC5CCOCC5)c([N+](=O)[O-])c4)c(Oc4cnc5[nH]ccc5c4)c3)CC2)=C(c2ccc(Cl)cc2)C1 [Venetoclax] + C1CN(CCC1(C(=O)N[C@@H](CCO)C2=CC=C(C=C2)Cl)N)C3=NC=NC4=C3C=CN4 [Capivasertib] (first compound max 1 µM, 7x7, partner max 3 µM) | -0.0595 | -0.0564 | -0.0286 | -0.0707 | -0.0465 | -0.0288 | -0.0183 | 0.0707 | -0.0433 | 0.0192 | -0.0498 | -0.0401 | -0.0836 | -0.0411 | -0.0513 | -0.0475 | -0.0511 | -0.0537 | -0.0707 | -0.0062 |
| Cc1c2c(nn1C)CSCc1cc(n(C)n1)CSc1cc(c3ccccc3c1)OCCCc1c(C(=O)O)n(C)c3c-2c(Cl)ccc13 [AZD5991] + CN(C)CCCOc1ccc(-c2ccc3ncc4c(c3c2)n(C2CCOCC2)c(=O)n4C)cn1 [AZD0156] (first compound max 1 µM, 7x7, partner max 1 µM) | 0.0233 | -0.0155 | -0.0423 | -0.026 | 0.0047 | 0.0007 | 0.0318 | 0.0854 | -0.0089 | -0.0272 | -0.0014 | 0.0338 | -0.0129 | -0.0069 | -0.0369 | -0.167 | 0.0345 | -0.0096 | 0.0031 | 0.0162 |
| CCN(CCO)CCCOc1ccc2c(Nc3cc(CC(=O)Nc4cccc(F)c4)[nH]n3)ncnc2c1 [AZD2811] + C[C@@H]1COCCN1C2=NC(=NC(=C2)C3(CC3)[S@](=N)(=O)C)C4=C5C=CNC5=NC=C4 [AZD6738] (first compound max 1 µM, 7x7, partner max 10 µM) | -0.0765 | -0.0718 | 0.0038 | -0.0259 | 0.0137 | -0.0727 | -0.0227 | -0.0357 | -0.0107 | -0.0148 | -0.018 | -0.0318 | -0.0203 | -0.0294 | -0.0469 | -0.103 | -0.0451 | -0.0184 | -0.0324 | 0 |
| CCN(CCO)CCCOc1ccc2c(Nc3cc(CC(=O)Nc4cccc(F)c4)[nH]n3)ncnc2c1 [AZD2811] + C=CCn1c(=O)c2cnc(Nc3ccc(N4CCN(C)CC4)cc3)nc2n1-c1cccc(C(C)(C)O)n1 [AZD1775] (first compound max 1 µM, partner max 1 µM) | 0.0847 | -0.0025 | -0.0165 | 0.0173 | -0.0341 | 0.0265 | 0.0302 | -0.0378 | -0.0267 | -0.0453 | -0.0134 | -0.0211 | -0.0159 | -0.0176 | -0.0158 | -0.0367 | -0.0367 | 0.0112 | -0.0518 | -0.0436 |
| CC1(C)CCC(CN2CCN(c3ccc(C(=O)NS(=O)(=O)c4ccc(NCC5CCOCC5)c([N+](=O)[O-])c4)c(Oc4cnc5[nH]ccc5c4)c3)CC2)=C(c2ccc(Cl)cc2)C1 [Venetoclax] + Cn1cnc2c(F)c(Nc3ccc(Br)cc3Cl)c(C(=O)NOCCO)cc21 [Selumetinib] (first compound max 1 µM, 7x7, partner max 3 µM) | -0.0814 | -0.0452 | 0.0012 | -0.0674 | -0.0184 | -0.0837 | -0.0356 | 0.0543 | -0.004 | 0.0061 | -0.0561 | -0.0399 | -0.0429 | -0.0539 | -0.0303 | -0.0091 | -0.0414 | -0.0135 | -0.043 | 0.0303 |
